Test results reported in patent publication US10328143B2, “Hemagglutinin-binding peptide” (priority 2014, dated 2019).

Test system: influenza virus H5N1-Vac3
Format: cell-based

Substance | anti-viral effect | anti-viral effect at low concentration
Cyclo(Ac-Trp-Thr-MeGly-Asp-MePhe-MePhe-Ser-MeSer-His-Tyr-Thr-Val-Pro-Glu-Cys)-amide [iHA-100-R14E] | high anti-viral effect | 
Cyclo(Ac-Trp-Thr-MeGly-Asp-MePhe-MePhe-Ser-MeSer-His-Tyr-Thr-Val-Pro-Ala-Cys)-amide [iHA-100-R14A] | high anti-viral effect | high anti-viral effect even when their concentration is low
Cyclo(Ac-Trp-Thr-MeGly-Asp-MePhe-MePhe-Ser-MeSer-His-Tyr-Thr-Val-Pro-Dap-Cys)-amide [iHA-100-R14Dap] | high anti-viral effect | high anti-viral effect even when their concentration is low
